According to ChEMBL document CHEMBL1153244, “Tetrasubstituted pyridines as potent and selective AKT inhibitors: Reduced CYP450 and hERG inhibition of aminopyridines” (Bioorg Med Chem Lett, 2010):

Columns and labels:
[1] = target: RAC-beta serine/threonine-protein kinase (Homo sapiens, UniProt P31751); assay: Inhibition of human AKT2
[2] = target: RAC-gamma serine/threonine-protein kinase (Homo sapiens, UniProt Q9Y243); assay: Inhibition of human AKT3
[3] = tested on: BT-474; assay: Antiproliferative activity against human BT474 cells; assay type: functional, cell-based
[4] = target: Cytochrome P450 3A4 (Homo sapiens, UniProt P08684); assay: Inhibition of CYP3A4; assay type: ADME
[5] = target: RAC-alpha serine/threonine-protein kinase (Homo sapiens, UniProt P31749); assay: Inhibition of human AKT1
[6] = target: T1, Voltage-gated inwardly rectifying potassium channel KCNH2 (Homo sapiens, UniProt Q12809); assay: Inhibition of human ERG relative to control
[7] = Clearance in rat at 10.6 mg, iv; assay type: ADME, organism-based; settings: in vivo
[8] = Clearance in dog at 2.4 mg, iv; assay type: ADME, organism-based, Canis lupus familiaris; settings: in vivo
[9] = tested on: Rattus norvegicus; assay: Dose normalized AUC (0 to t) in rat at 10.6 mg, iv; assay type: ADME, organism-based; settings: in vivo
[10] = tested on: Rhesus monkey; assay: Dose normalized AUC (0 to t) in monkey at 3.1 mg, iv; assay type: ADME, organism-based, Macaca mulatta; settings: in vivo
[11] = Clearance in monkey at 3.1 mg, iv; assay type: ADME, organism-based, Macaca mulatta; settings: rhesus monkey, in vivo
[12] = tested on: Mus musculus; assay: Dose normalized AUC (0 to t) in mouse at 9.6 mg, ip; assay type: ADME, organism-based; settings: in vivo
[13] = tested on: Canis familiaris; assay: Dose normalized AUC (0 to t) in dog at 2.4 mg, iv; assay type: ADME, organism-based, Canis lupus familiaris; settings: in vivo
[14] = tested on: Mus musculus; assay: Antitumor activity against human BT474 cells xenografted in mouse assessed as reduction in tumor volume at 30 mg/kg, ip; set-up: scale not given: the % may be the effect or the level left; settings: route intraperitoneal
[15] = Clearance in mouse at 2.2 mg, iv; assay type: ADME, organism-based; settings: in vivo
[16] = Clearance in monkey at 3.0 mg, iv; assay type: ADME, organism-based, Macaca mulatta; settings: rhesus monkey, in vivo
[17] = Clearance in dog at 3.1 mg, iv; assay type: ADME, organism-based, Canis lupus familiaris; settings: in vivo
[18] = target: T1, Voltage-gated inwardly rectifying potassium channel KCNH2; assay: Inhibition of human ERG
[19] = tested on: Mus musculus; assay: Dose normalized AUC (0 to t) in mouse at 2.2 mg, iv; assay type: ADME, organism-based; settings: in vivo
[20] = tested on: Rhesus monkey; assay: Dose normalized AUC (0 to t) in monkey at 3.0 mg, iv; assay type: ADME, organism-based, Macaca mulatta; settings: in vivo
[21] = tested on: Rattus norvegicus; assay: Dose normalized AUC (0 to t) in rat at 2.4 mg, iv; assay type: ADME, organism-based; settings: in vivo
[22] = Clearance in rat at 2.4 mg, iv; assay type: ADME, organism-based; settings: in vivo
[23] = tested on: Canis familiaris; assay: Dose normalized AUC (0 to t) in dog at 3.1 mg, iv; assay type: ADME, organism-based, Canis lupus familiaris; settings: in vivo
[24] = tested on: Mus musculus; assay: Antitumor activity against human BT474 cells xenografted in ip dosed mouse assessed as inhibition of tumor growth; settings: BT-474

Sequence of RAC-beta serine/threonine-protein kinase (P31751 whole entry): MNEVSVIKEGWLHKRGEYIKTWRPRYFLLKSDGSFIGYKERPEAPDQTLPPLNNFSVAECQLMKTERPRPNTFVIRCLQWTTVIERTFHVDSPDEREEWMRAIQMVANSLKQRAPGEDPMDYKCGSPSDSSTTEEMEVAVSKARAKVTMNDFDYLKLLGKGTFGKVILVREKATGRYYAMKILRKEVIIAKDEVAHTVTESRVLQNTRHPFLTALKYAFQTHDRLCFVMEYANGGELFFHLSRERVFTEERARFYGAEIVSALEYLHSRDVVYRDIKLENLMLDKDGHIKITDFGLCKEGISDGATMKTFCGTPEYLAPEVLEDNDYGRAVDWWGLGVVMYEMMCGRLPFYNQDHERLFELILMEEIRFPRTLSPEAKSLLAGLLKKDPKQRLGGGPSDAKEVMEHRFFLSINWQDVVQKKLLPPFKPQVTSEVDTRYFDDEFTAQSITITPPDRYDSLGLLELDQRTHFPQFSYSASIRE
Sequence of RAC-alpha serine/threonine-protein kinase (P31749 whole entry): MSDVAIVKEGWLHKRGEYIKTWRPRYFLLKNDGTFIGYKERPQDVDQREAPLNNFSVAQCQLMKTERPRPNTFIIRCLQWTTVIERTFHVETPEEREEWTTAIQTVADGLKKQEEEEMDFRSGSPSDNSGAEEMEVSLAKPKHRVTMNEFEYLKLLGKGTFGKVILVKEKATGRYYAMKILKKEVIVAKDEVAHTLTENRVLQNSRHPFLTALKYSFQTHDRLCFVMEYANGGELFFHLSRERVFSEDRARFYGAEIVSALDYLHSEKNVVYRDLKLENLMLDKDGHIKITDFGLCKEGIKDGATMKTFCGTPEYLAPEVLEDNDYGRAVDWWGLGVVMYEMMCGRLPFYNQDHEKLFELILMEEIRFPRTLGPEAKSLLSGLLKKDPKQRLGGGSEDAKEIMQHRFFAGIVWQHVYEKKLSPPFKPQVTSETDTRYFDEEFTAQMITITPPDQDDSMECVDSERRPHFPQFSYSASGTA
Sequence of Cytochrome P450 3A4 (P08684 whole entry): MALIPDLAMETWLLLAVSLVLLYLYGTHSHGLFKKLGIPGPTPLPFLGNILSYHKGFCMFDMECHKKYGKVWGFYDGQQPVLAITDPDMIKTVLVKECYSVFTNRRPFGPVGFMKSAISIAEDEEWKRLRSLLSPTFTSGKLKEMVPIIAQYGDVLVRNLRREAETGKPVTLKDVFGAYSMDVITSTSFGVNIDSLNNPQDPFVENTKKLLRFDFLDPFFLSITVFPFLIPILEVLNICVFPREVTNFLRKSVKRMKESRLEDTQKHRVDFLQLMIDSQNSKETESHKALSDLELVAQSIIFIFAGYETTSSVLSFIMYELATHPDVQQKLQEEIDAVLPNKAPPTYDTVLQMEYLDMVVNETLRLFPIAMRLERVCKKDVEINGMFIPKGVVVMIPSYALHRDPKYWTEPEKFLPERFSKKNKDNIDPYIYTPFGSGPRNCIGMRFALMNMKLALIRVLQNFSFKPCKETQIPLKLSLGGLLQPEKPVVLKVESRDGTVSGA
Sequence of RAC-gamma serine/threonine-protein kinase (Q9Y243 whole entry): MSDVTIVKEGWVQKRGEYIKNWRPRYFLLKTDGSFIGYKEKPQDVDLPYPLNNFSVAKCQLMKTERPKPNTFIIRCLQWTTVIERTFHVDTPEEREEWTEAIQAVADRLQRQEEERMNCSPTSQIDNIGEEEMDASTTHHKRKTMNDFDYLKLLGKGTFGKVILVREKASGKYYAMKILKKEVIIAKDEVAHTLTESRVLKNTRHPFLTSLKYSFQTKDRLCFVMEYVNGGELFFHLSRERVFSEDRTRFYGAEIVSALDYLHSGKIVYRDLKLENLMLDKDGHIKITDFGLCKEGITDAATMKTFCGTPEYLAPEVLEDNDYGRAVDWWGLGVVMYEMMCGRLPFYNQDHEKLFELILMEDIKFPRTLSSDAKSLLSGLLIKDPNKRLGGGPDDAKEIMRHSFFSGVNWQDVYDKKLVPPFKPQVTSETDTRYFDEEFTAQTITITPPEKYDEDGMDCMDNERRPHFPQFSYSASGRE
T1 sequence (Q12809 whole entry): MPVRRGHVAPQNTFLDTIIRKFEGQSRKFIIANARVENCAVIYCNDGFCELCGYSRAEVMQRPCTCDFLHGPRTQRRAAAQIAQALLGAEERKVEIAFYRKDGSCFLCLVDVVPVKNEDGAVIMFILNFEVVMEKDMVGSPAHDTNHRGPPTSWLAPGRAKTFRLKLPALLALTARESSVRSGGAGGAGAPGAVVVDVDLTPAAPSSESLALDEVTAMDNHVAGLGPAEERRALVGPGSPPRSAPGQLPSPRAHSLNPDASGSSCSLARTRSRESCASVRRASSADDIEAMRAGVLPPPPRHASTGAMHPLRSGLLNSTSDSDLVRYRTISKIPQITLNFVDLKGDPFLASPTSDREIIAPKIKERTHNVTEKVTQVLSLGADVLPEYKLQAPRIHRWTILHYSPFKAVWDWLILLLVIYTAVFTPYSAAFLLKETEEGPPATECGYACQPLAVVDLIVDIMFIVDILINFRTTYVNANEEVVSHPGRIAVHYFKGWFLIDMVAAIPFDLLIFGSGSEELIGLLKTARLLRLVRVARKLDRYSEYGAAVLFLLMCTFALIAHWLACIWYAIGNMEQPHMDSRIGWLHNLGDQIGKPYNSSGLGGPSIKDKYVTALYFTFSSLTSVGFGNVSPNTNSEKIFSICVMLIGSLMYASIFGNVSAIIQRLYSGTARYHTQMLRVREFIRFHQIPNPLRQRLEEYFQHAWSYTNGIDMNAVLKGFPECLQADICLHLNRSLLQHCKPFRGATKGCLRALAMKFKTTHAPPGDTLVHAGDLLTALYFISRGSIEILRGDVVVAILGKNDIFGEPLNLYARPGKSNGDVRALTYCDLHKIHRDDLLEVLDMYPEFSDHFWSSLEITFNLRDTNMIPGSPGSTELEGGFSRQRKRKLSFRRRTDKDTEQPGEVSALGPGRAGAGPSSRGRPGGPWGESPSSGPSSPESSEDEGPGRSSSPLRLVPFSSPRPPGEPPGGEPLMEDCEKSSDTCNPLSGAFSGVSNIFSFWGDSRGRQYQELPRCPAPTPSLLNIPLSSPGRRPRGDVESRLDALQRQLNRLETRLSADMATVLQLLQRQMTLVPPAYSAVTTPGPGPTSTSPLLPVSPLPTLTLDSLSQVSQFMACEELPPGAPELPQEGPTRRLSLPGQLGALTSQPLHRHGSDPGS

SMILES | IC50 [1] [nM] | IC50 [2] [nM] | IC50 [3] [nM] | IC50 [4] [nM] | IC50 [5] [nM] | other results
Cc1occc1-c1nc(N)c(OC[C@@H](N)Cc2ccccc2)cc1-c1cnc2[nH]nc(C)c2n1 | 130 | 6 | 580 | 3200 | 6 | 
Cc1occc1-c1ncc(OC[C@@H](N)Cc2c[nH]c3ccccc23)cc1-c1cnc2[nH]nc(C)c2n1 | 25 |  | 290 | 630 | 1 | inhibition (INH) [6]: 83.4%
Cc1n[nH]c2ncc(-c3cc(OC[C@@H](N)Cc4c[nH]c5ccccc45)c(C#N)nc3-c3ccoc3)nc12 | 250 | 19 |  | 790 | 10 | 
Cc1occc1-c1nc(N)c(OC[C@@H](N)Cc2c[nH]c3ccccc23)cc1-c1cnc2[nH]nc(C)c2c1 | 15 | 2 | 470 | 1000 | 1 | 
Cc1n[nH]c2ncc(-c3cc(OC[C@@H](N)Cc4c[nH]c5ccccc45)cnc3-c3ccoc3)nc12 |  |  |  |  |  | clearance [7]: 53.2 mL/min/kg; clearance [8]: 34.4 mL/min/kg; AUC [9]: 301 ng·h/mL/mg; AUC [10]: 386 ng·h/mL/mg; clearance [11]: 39.1 mL/min/kg; AUC [12]: 96 ng·h/mL/mg; AUC [13]: 425 ng·h/mL/mg
Cc1occc1-c1nc(N)c(OC[C@@H](N)Cc2c(C(N)=O)[nH]c3ccccc23)cc1-c1cnc2[nH]nc(C)c2n1 | 15 | 1 | > 10000 |  | 1 | 
Cc1occc1-c1nc(N)c(OC[C@@H](N)Cc2c[nH]c3ccccc23)cc1-c1ccc2[nH]nc(C)c2c1 | 15 | 1 | 200 | 100 | 3 | 
CCNc1nc(-c2ccoc2)c(-c2cnc3[nH]nc(C)c3n2)cc1OC[C@@H](N)Cc1ccccc1 | 6300 | 500 | 3900 | 5000 | 500 | 
Cc1occc1-c1nc(N)c(OC[C@@H](N)Cc2c[nH]c3ccccc23)cc1-c1cnc2[nH]nc(C)c2n1 | 19 | 2 | 310 | 5000 | 1 | Activity [14]: 59%; clearance [15]: 98.9 mL/min/kg; clearance [16]: 22.3 mL/min/kg; clearance [17]: 25.3 mL/min/kg; IC50 [18]: 10400 nM; AUC [19]: 170 ng·h/mL/mg; AUC [20]: 853 ng·h/mL/mg; AUC [21]: 303 ng·h/mL/mg; inhibition (INH) [6]: 95%; clearance [22]: 46 mL/min/kg; AUC [23]: 630 ng·h/mL/mg; Activity [24]: Dose-dependent effect
Cc1occc1-c1nc(N)c(OC[C@@H](N)Cc2c(Cl)[nH]c3ccccc23)cc1-c1cnc2[nH]nc(C)c2n1 | 12 | 2 | 150 | 500 | 1 | 
Cc1nc(-c2ccoc2)c(-c2cnc3[nH]nc(C)c3n2)cc1OC[C@@H](N)Cc1c[nH]c2ccccc12 | 63 | 10 | 1260 | 630 | 3 | 
Cc1occc1-c1nc(N)c(OC[C@@H](N)Cc2c(C#N)[nH]c3ccccc23)cc1-c1cnc2[nH]nc(C)c2n1 | 7 | 1 | 2800 | 1600 | 1 | 
Cc1occc1-c1nc(N)c(OC[C@@H](N)Cc2c[nH]c3ccccc23)cc1-c1cc2c(C)n[nH]c2cn1 | 13 | 3 | 300 | 1300 | 1 | 
